What all share (test): Growth inhibitory activity against Ba/F3 cell line
What all share (type): cell-based

The target of one test is T1, FLT3-ITD Ba/F3 cells (Homo sapiens, UniProt P36888, cells depend on it, form not given).
T1 sequence (P36888 1-993): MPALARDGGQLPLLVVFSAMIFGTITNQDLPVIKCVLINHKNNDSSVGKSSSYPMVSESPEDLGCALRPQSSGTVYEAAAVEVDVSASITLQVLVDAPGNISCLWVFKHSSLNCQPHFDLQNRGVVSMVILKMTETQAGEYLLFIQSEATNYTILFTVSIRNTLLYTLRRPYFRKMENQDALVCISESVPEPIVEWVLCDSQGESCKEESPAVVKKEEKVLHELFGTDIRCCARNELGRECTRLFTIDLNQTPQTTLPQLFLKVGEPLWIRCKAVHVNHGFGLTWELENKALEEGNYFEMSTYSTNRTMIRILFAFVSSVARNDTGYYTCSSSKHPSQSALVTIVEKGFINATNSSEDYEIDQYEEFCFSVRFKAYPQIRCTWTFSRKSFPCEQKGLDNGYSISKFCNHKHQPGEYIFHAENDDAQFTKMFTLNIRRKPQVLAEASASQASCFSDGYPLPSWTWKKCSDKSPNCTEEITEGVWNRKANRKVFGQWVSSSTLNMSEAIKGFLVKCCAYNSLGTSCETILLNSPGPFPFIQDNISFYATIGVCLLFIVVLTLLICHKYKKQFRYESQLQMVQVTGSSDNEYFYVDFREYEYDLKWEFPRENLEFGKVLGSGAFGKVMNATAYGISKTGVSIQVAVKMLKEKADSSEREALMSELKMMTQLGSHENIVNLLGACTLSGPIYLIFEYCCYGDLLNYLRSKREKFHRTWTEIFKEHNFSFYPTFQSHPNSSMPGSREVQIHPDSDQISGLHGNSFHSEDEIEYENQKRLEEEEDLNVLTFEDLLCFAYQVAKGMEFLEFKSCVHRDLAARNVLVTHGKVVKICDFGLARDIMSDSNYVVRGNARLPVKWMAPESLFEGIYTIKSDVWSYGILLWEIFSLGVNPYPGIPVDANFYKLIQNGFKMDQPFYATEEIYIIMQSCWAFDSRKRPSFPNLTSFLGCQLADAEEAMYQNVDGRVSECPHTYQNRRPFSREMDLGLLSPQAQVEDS
The following applies: Ba/F3 expressing FLT3-ITD; 72 hours; cell titer glo; read-out: IC50 (uM) FLT3-ITD. The method, boiled down: (§1)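 Ba/F3 cells carrying FLT3 mutants grown in RPMI with 10% FBS, exposed 72 h to ten 3-fold dilutions of compound starting from 1 mM DMSO stock. Viability read by CellTiter-Glo luminescence; GI50 fitted from signal versus final concentration.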
A general note: ATP-based viability assays read luminescence as a measure of living cells.

For a further test, the target named is T2, FLT3-D835Y Ba/F3 cells (Homo sapiens, UniProt P36888, D835Y, cells depend on it).
T2 sequence (P36888 1-993 D835Y): T1 sequence (P36888 1-993) with D835Y
The following applies: Ba/F3 expressing FLT3-D835Y; 72 hours; cell titer glo; read-out: IC50 (uM) FLT3-D835Y. The method, boiled down:
as §1

Another test relates to Parental Ba/F3 cells. The note with it: BaF3; Parental Ba/F3 with mouse IL-3 1 ng/mL; 72 hours; cell titer glo. The method, then:
A Ba/F3 cell line expressing an FLT3 mutation gene was cultured in a culture solution including 90% RPMI, 10% FBS, and an antibiotic (Welgene). 100 uL of the Ba/F3 cell line was put into each of 5,000 wells of a TC-treated 96 well plate (SPL), and then 1 uL of a test compound diluted in dimethylsulfoxide (diluted for each 3 paint from a concentration of 1 mM, total 10 concentrations) was each injected thereinto. Thereafter, the resulting cell lines were incubated in a cell culture incubator for 72 hours. 50 uL of a cell titer glo (Promega) solution was added thereto, the resulting mixture was stored at room temperature for 10 minutes, and then the light emission intensity was measured by using a reader (Envision, PerkinElmer). The light emission intensity was shown as a graph for each final concentration of the test compound, and the GI50 value was obtained by using a Prism 5.0 (GraphPad) software.
A parental Ba/F3 cell line having no FLT3 mutation gene was cultured by using a culture solution supplemented with mouse IL-3 (R&D Systems), such that a final concentration became 1 ng/mL in the culture solution including 90% RPMI, 10% FBS, and an antibiotic (Welgene). The activity was measured by a method which is the same as described above.

Residue numbers refer to the chain shown, from its start. Counter-ions that a name gives are not always drawn.

By IC50 is commonly meant the concentration that inhibits the measured activity by half. Turning to `Cn1cc(CCc2cc(NC(N)=O)c(C(=O)N[C@H]3CCCCNC3)s2)cn1` [Example 52, (S)—N-(azepan-3-yl)-5-(2-(1-methyl-1H-pyrazol-4-yl)ethyl)-3-ureidothiophene-2-carboxamide trifluoroacetate], the GI50 is 6.28 µM on FLT3-ITD Ba/F3 cells and over 33 µM at FLT3-D835Y Ba/F3 cells. In addition, in the test with Parental Ba/F3 cells, the IC50 is over 100 µM.
For the compound `NC(=O)Nc1cc(CCc2cccc(F)c2)sc1C(=O)N[C@H]1CCCNC1` [Example 53], the GI50 on FLT3-ITD Ba/F3 cells turned out to be 0.359 µM; on FLT3-D835Y Ba/F3 cells, 1.61 µM. In addition, the half-maximal inhibitory concentration (IC50) with Parental Ba/F3 cells amounted to 44.5 µM.
Regarding `NC(=O)Nc1cc(CCc2cccc(F)c2)sc1C(=O)N[C@H]1CCCCNC1` [Example 54, (S)—N-(azepan-3-yl)-5-(3-fluorophenethyl)-3-ureidothiophene-2-carboxamide], the GI50 on FLT3-ITD Ba/F3 cells came to 1.93 µM; at FLT3-D835Y Ba/F3 cells it was 11.5 µM. Further, the IC50 with Parental Ba/F3 cells is over 33 µM.

The values above are taken from US10442796B2, “2,3,5-substituted thiophene compound as protein kinase inhibitor” (KOREA INSTITUTE OF SCIENCE AND TECHNOLOGY, priority 2016, dated 2019).
